Test results as given in patent US11744860B2, “Technology for efficient activation of NKT cells” (RIKEN, priority 2016, dated 2023).

Assays:
Assay type in all cases: cell-based
human NKT cell line [1] = assay: NKT cell activating action (IFN-γ production), co-culture of ligand-pulsed cells with human NKT cell line, ELISA; conditions: ligand 100 ng/mL; for IFN-γ production from NKT cells induced by ligand-pulsed CD14 positive cells: 48 hr pulse, 1×10^5 pulsed cells with 1×10^5 human NKT cells, 48 hr
Excerpt: For preparation of the cells obtained by culturing human CD14 positive cells (monocytes) immediately after separation using anti-CD14 antibody and human CD14 negative cells or human Elu-CD14 positive cells (monocytes) for 2 days with GM-CSF and NKT cell ligand RK-163 (respectively called “RK-163-pulsed human CD14 positive cell”, “RK-163-pulsed human CD14 negative cell”, “RK-163-pulsed human Elu-CD14 positive cell”), and the dendritic cells induced to differentiate in 2)-(2) by culturing for 6 days with addition of GM-CSF and IL-4 (called “RK-163-pulsed human dendritic cell”), RK-163 (bulk powder was dissolved in PBS added with DMSO and 0.5% Tween 20) was added to each cell to a final concentration of 100 ng/mL, and the cells were cultured at 37° C., 5% CO2 for 48 hr to produce “RK-163-pulsed cells”. After culturing, the recovered cells were centrifugation washed twice, and the number of viable cells after Trypan Blue staining was calculated by TC20™ Automated Cell Counter. RK-163-pulsed cells and human NKT cell line were respectively suspended in 10% fetal calf serum (Sigma, Lot No. 114K525)-added RMPI-1640 (Invitrogen) to 1×10^6/mL, each cell suspension was seeded at a cell concentration of 1×10^5/0.1 mL/well in a 96-well round-bottomed culture plate, and the cells were cultured at 37° C., 5% CO2 for 48 hr. After culturing, 200 μL of supernatant was recovered, and the produced and secreted IFN-γ was measured using a commercially available ELISA kit (BD Biosciences).
CD14 positive cells immediately after separation of anti-CD14 antibody-bound microbeads were separated, pulse-cultured in a medium containing NKT ligand RK-163 or other NKT cell ligand α-GalCer at 100 ng/mL and GM-CSF (53.3 ng/mL) for various times (0, 16, 48, 64 and 72 hr), and an influence on the activity of NKT cells to induce IFN-γ production was compared. As a result, IFN-γ production inducing activity was found from 16 hr after pulsing and high activity was found 48-72 hr later (FIG. 4, left). The recovery rate and survival rate at that time were highest at 48 hrs (FIG. 4, right). […]
Using RCAI-85 (100 ng/mL), RCAI-137 (100 ng/mL) instead of RK-163, CD14 positive cells (monocytes) isolated from human peripheral blood were pulsed for 48 hr to give each ligand-pulsed CD14 positive cell. 1×10^5 RK-163-pulsed CD14 positive cells or other ligand-pulsed CD14 positive cells were seeded in a 96 well round-bottomed plate, and cocultured with 1×10^5 human NKT cells for 48 hr in a 10% FBS-containing complete RPMI-1640 medium, and the concentration of IFN-γ in the culture medium was measured.

[2] = test system: NCI H460 cells (human lung cancer cell line); assay: Cytotoxic activity of NKT cells stimulated with pulsed cells against NCI H460 cells
Excerpt: Human NKT cells were stimulated by culturing for 8-10 days with the “RK-163-pulsed human CD14 positive cell” or “RK-163-pulsed human dendritic cell” produced in the same manner as above in a mixed medium of AIM-V (50%) and RPMI-1640 (45%) and containing FCS (5%) (lot suitable for proliferation of iPS cells), sodium pyruvate, NEAA, 2-ME, IL-2 (100 U/mL) (Imunace). The mixing ratio of NKT cells and RK-163-pulsed CD14 positive cells or RK-163-pulsed dendritic cells was set to 1:1.5-5. The obtained human NKT cells were cultured for 4 hr together with NCI H460 cells (human lung cancer cell line) in an FBS (10%)-containing complete RPMI-1640 medium on a 96 well round-bottomed plate and the cytotoxic activity against NCI H460 cells was examined. The number of the target cells (NCI H460 cells) was set to 1×10^4 cells/well and the effector:target ratio was set to 3:1 and 10:1.

human NKT cell line [3] = assay: NKT cell activating action (IFN-γ production) of RK-163-pulsed human CD14 positive cell lines; conditions: U937 cells, RK-163 100 ng/mL, presence or absence of GM-CSF, 2-48 hr
Procedure: Human CD14 positive cell line THP-1 cells and U937 cells were suspended in RPMI1640/10% FBS culture medium to 1-3×10^6 cells/ml, and seeded in a 24-well culture plate (Falcon) at a cell density of 1 mL/well. Simultaneously, RK-163 (bulk powder was dissolved in PBS added with DMSO and 0.5% Tween 20) was added to a final concentration 100 ng/mL, […] to give “RK-163-pulsed human CD14 positive cell line”.
iPS-CD14 positive cells were cultured for 8-48 hr in the presence of RK-163 in the same manner as for THP-1 and U937 to give “RK-163-pulsed human iPS-CD14 positive cell line”.
[…] After culturing, the recovered cells were washed twice by centrifugation, and the number of viable cells after Trypan Blue staining was calculated by TC20™ Automated Cell Counter. RK-163-pulsed cells and human NKT cell line were respectively suspended in 10% fetal bovine serum (Sigma, Lot No. 114K525)-added RMPI-1640 (Invitrogen) to 1×10^6/mL, each cell suspension was seeded at a cell concentration of 1×10^5/0.1 mL/well in a 96-well round-bottomed culture plate, and the cells were cultured at 37° C., 5% CO2 for 48 hr. After culturing, 200 μL of supernatant was recovered, and the produced and secreted IFN-γ was measured using a commercially available ELISA kit (BD Biosciences). […]

SMILES	IFN-γ production from NKT cells induced by ligand-pulsed CD14 positive cells (human NKT cell line [1])	cytotoxic activity induced on human NKT cells as compared to α-GalCer [2]	pulse time from which IFN-γ production inducing activity was found (human NKT cell line [3])	pulse time with high IFN-γ production inducing activity (human NKT cell line [1]; CD14 positive cells, GM-CSF 53.3 ng/mL)	pulse time from which IFN-γ production inducing activity was found (human NKT cell line [1]; CD14 positive cells, GM-CSF 53.3 ng/mL, times 0, 16, 48, 64, 72 hr)
CCCCCCCCCCCCCCCCCCCCCCCCCC(=O)N[C@@H](CO[C@H]1O[C@H](COCC)[C@H](O)[C@H](O)[C@H]1O)[C@H](O)[C@H](O)CCCCCCCCCCCCCC [RCAI-85]	strongly induce				
CCCCCCCCCCCCCCCCCCCCCCCCCC(=O)N[C@@H](CO[C@H]1O[C@H](COC(=O)NO)[C@H](O)[C@H](O)[C@H]1O)[C@H](O)[C@H](O)CCCCCCCCCCCCCC [RCAI-137]	strongly induce				
CCCCCCCCCCCCCCCCCCCCCCCCCC(=O)N[C@@H](CO[C@H]1O[C@H](COC(=O)NC)[C@H](O)[C@H](O)[C@H]1O)[C@H](O)[C@H](O)CCCCCCCCCCCCCC [RK-163]		stronger	≥ 2 h	48 to 72 h	≥ 16 h
